Assay results: patent publication US10807959B2, “WDR5-MLL1 inhibitors and modulators” (Vanderbilt University, priority 2018, dated 2020)

Key:
WDR5 [1] = target: T1, WDR5 (Homo sapiens (Human), UniProt P61964); test: TR-FRET binding assay, displacement of 10mer-Thr-FAM probe from His-tagged WDR5
Procedure: The LanthaScreenTM Elite Tb-anti-HIS Antibody from ThermoFisher Scientific was used for this purpose. […] The ratio of the 520 and 495 signals are then utilized to generate a dose-response curve to calculate an IC50 value. […] WDR[…] tag protein is used at 2 nM.

MV4:11 cells = test: Cellular viability / anti-proliferative activity, CellTiter-Glo, 7 day protocol; type: cell-based, human; conditions: 168 h
Procedure: Anti proliferative activity using MLL-harboring cell lines. MV4:11 cells are grown in RPMI-1640 media supplemented with 10% FBS and 1% penicillin/streptomycin. Viability assays are performed by dispensing […] into each well of an opaque 384-well plate and adding compounds at the indicated concentrations in a final volume of 32 μL and a final concentration of DMSO of 0.1% for all samples. After a set incubation period, 7 day protocol, the viability of cells in each well is assessed using the CellTiter-Glo assay (Promega), read on a GloMax 96 Microplane Luminometer (Promega). Serial dilutions of each cell type are included in all assays to generate standard curves and determine assay measurements are taken within the dynamic range of the instrument. GI50 values are calculated based on three biological replicates, each with three technical replicates. Data are expressed as mean plus/minus S.E.M.

WDR5 [2] = target: T1, WDR5; test: Fluorescence polarization anisotropy (FPA) competition assay, displacement of FITC-MLL or 10mer-Thr-FAM peptide; type: binding
Source text: The assay is run in 384-well format and is read on a BioTek Cytation. […] Replicate values are fit to a 4-parameter fit in XLFit to generate a single IC50 value for each compound that is then converted to a Ki value. Experiments are repeated to generate a 2nd, independent Ki value; values from the two experiments are averaged to produce the reported Ki value for the compound.

[3] = Homo sapiens, MV4:11 leukemia cells after a 7 day incubation period
[4] = cellular proliferation of MV4:11 human cancer cell lines, 7 day
[5] = Inhibition of WDR5 by TR-FRET assay
[6] = Inhibition of WDR5 by FPA assay
[7] = Table B2, WDR5 WIN-site binding affinity, values not less than 1 nM (FPA)
[8] = Table C2, WDR5 WIN-site binding affinity, values not less than 1 nM (FPA)

| Compound | GI50 (MV4:11 cells; [4]) | Ki (WDR5 [1]; [5]) | further results |
| --- | --- | --- | --- |
| Cc1cc(CNC(=O)c2cc(CNC3=NCCN3)cc(-c3cnccc3C)c2)ccc1Cl [Example B88] | – | – | Ki (WDR5 [1]): 0.115 nM; GI50 (MV4:11 cells; [3]): 536 nM |
| O=C(NCc1ccc(Cl)c(Cl)c1)c1cc(Cn2ccnc2)cc(-c2ccc(F)cc2Cl)c1 [Example 116, 5-((1H-Imidazol-1-yl)methyl)-2′-chloro-N-(3,4-dichlorobenzyl)-4′-fluoro-[1,1′-biphenyl]-3-carboxamide] | 3800 nM | – | – |
| COc1cc(CNC(=O)c2cc(CNC3=NCCC3)cc(-c3ccnc(C)c3)c2)cc(OC)c1 [Example 57, 3-(((3,4-Dihydro-2H-pyrrol-5-yl)amino)methyl)-N-(3,5-dimethoxybenzyl)-5-(2-methylpyridin-4-yl)benzamide] | 2800 nM | 3 nM | – |
| COc1cc(F)ccc1-c1cc(CNC2=NCCC2)cc(C(=O)NCc2ccc(Cl)c(C)c2)c1 [Example 70, N-(4-chloro-3-methylbenzyl)-5-(((3,4-dihydro-2H-pyrrol-5-yl)amino)methyl)-4′-fluoro-2′-methoxy-[1,1′-biphenyl]-3-carboxamide] | 460 nM | 0.5 nM | – |
| Cc1cc(-c2cc(CNC3=NCCN3)cc(C(=O)NCc3ccc(Cl)c(C)c3)c2)cc(C)n1 [Example 41, N-(4-chloro-3-methylbenzyl)-3-(((4,5-dihydro-1H-imidazol-2-yl)amino)methyl)-5-(2,6-dimethylpyridin-4-yl)benzamide] | 170 nM | < 0.1 nM | – |
| Cc1ccnc(C(NC(=O)c2cc(Cn3ccnc3)cc(-c3ccc(F)cc3Cl)n2)C2CC2)c1 (stereo not drawn) [Example 150, 4-((1H-Imidazol-1-yl)methyl)-6-(2-chloro-4-fluorophenyl)-N-(cyclopropyl(4-methylpyridin-2-yl)methyl)picolinamide] | – | 5.71 nM | Ki (WDR5 [2]; [6]): 1.1 nM |
| Cc1cnccc1-c1cc(Cn2ccnc2C)cc(C(=O)NCc2ccc(Cl)c(Cl)c2)n1 [Example 166, N-(3,4-Dichlorobenzyl)-3′-methyl-4-((2-methyl-1H-imidazol-1-yl)methyl)-[2,4′-bipyridine]-6-carboxamide] | 240 nM | – | – |
| Cc1cc(CNC(=O)c2cc(CNC3=NCCC3)cc(-c3ccc(F)nc3C)c2)ccc1Cl [Example B129] | – | – | Ki (WDR5 [1]): 0.089 nM; GI50 (MV4:11 cells; [3]): 109 nM |
| Cc1cc(CNC(=O)c2cc(CNC3=NCCC3)cc(-c3cccnc3C(F)(F)F)c2)ccc1Cl [Example 67, N-(4-Chloro-3-methylbenzyl)-3-(((3,4-dihydro-2H-pyrrol-5-yl)amino)methyl)-5-(2-(trifluoromethyl)pyridin-3-yl)benzamide] | 50 nM | < 0.1 nM | – |
| Cc1cc(CNC(=O)c2cc(CNC3=NC(=O)CN3C)cc(-c3ccc(F)nc3C)c2)ccc1Cl [Example 71, N-(4-Chloro-3-methylbenzyl)-3-(6-fluoro-2-methylpyridin-3-yl)-5-(((1-methyl-4-oxo-4,5-dihydro-1H-imidazol-2-yl)amino)methyl)benzamide] | 5000 nM | 6.6 nM | – |
| COc1ccnc(CNC(=O)c2cc(CNC3=NCCC3)cc(-c3ccc(F)nc3C)c2)c1 [Example 53, 3-(((3,4-Dihydro-2H-pyrrol-5-yl)amino)methyl)-5-(6-fluoro-2-methylpyridin-3-yl)-N-((4-methoxypyridin-2-yl)methyl)benzamide] | 630 nM | 0.53 nM | – |
| COc1ccnc(CNC(=O)c2cc(CNC3=NCCN3)cc(-c3ccc(F)cc3C)c2)c1 [Example B114] | – | – | Ki (WDR5 [1]): 0.228 nM; GI50 (MV4:11 cells; [3]): 701 nM |
| COc1cc(OC)cc(C(C)NC(=O)c2cc(Cn3ccnc3C)cc(-c3ccc(F)nc3C)n2)c1 (stereo not drawn) [Example 159, N-(1-(3,5-Dimethoxyphenyl)ethyl)-6′-fluoro-2′-methyl-4-((2-methyl-1H-imidazol-1-yl)methyl)-[2,3′-bipyridine]-6-carboxamide] | 1200 nM | 3.9 nM | – |
| Cc1cc(C(C)NC(=O)c2cc(CNC3=NCCC3)cc(-c3ccc(F)nc3C)c2)ncc1Cl (stereo not drawn) [Example 54, N-(1-(5-Chloro-4-methylpyridin-2-yl)ethyl)-3-(((3,4-dihydro-2H-pyrrol-5-yl)amino)methyl)-5-(6-fluoro-2-methylpyridin-3-yl)benzamide] | 180 nM | 0.31 nM | – |
| COc1cc(OC)cc(C(C)NC(=O)c2cc(CNC3=NCCN3)cc(-c3ccc(F)nc3C)c2)c1 (stereo not drawn) [Example 7, 3-(((4,5-Dihydro-1H-imidazol-2-yl)amino)methyl)-N-(1-(3,5-dimethoxyphenyl)ethyl)-5-(6-fluoro-2-methylpyridin-3-yl)benzamide] | 280 nM | 0.11 nM | – |
| Cc1cc(CNC(=O)c2cc(CNC3=NCCC3)cc(-c3ccc(F)cc3C(F)(F)F)c2)ccc1Cl [Example 68, N-(4-chloro-3-methylbenzyl)-5-(((3,4-dihydro-2H-pyrrol-5-yl)amino)methyl)-4′-fluoro-2′-(trifluoromethyl)-[1,1′-biphenyl]-3-carboxamide] | 160 nM | 0.3 nM | – |

| Compound | GI50 (MV4:11 cells; [4]) | Ki (WDR5 [1]; [5]) | further results |
| --- | --- | --- | --- |
| COc1cc(CNC(=O)c2cc(CNC3=NCCC3)nc(-c3ccc(F)cc3C(F)(F)F)c2)cc(OC)c1 [Example 91, 2-(((3,4-dihydro-2H-pyrrol-5-yl)amino)methyl)-N-(3,5-dimethoxybenzyl)-6-(4-fluoro-2-(trifluoromethyl)phenyl)isonicotinamide] | 460 nM | 1.6 nM | – |
| Cc1nc(F)ccc1-c1cc(Cn2ccnc2C)cc(C(=O)NCc2ccc(Cl)c(Cl)c2)n1 [Example 164, N-(3,4-dichlorobenzyl)-6′-fluoro-2′-methyl-4-((2-methyl-1H-imidazol-1-yl)methyl)-[2,3′-bipyridine]-6-carboxamide] | 1100 nM | – | – |
| COc1cc(CNC(=O)c2cc(CNC3=NCCC3)cc(-c3ccc(F)cc3C)c2)cc(OC)c1 [Example 59, 5-(((3,4-Dihydro-2H-pyrrol-5-yl)amino)methyl)-N-(3,5-dimethoxybenzyl)-4′-fluoro-2′-methyl-[1,1′-biphenyl]-3-carboxamide] | 790 nM | 0.74 nM | – |
| COc1cc(CNC(=O)c2ccc(F)c(CNC3=NCCN3)c2)cc(OC)c1 [Example B15, 3-(((4,5-dihydro-1H-imidazol-2-yl)amino)methyl)-N-(3,5-dimethoxybenzyl)-4-fluorobenzamide] | – | – | GI50 (MV4:11 cells; [3]): 893 nM |
| Cc1cccc(CNC(=O)c2cc(Cn3ccnc3)cc(-c3ccc(F)cc3Cl)n2)n1 [Example 151, 4-((1H-Imidazol-1-yl)methyl)-6-(2-chloro-4-fluorophenyl)-N-((6-methylpyridin-2-yl)methyl)picolinamide] | – | 32 nM | Ki (WDR5 [2]; [6]): 8.7 nM |
| Cc1nc(F)ccc1-c1cc(Cn2ccnc2)cc(C(=O)NC(C2CC2)C2CC2)c1 [Example 133, 3-((1H-imidazol-1-yl)methyl)-N-(dicyclopropylmethyl)-5-(6-fluoro-2-methylpyridin-3-yl)benzamide] | – | 4.6 nM | Ki (WDR5 [2]; [6]): 3.5 nM |
| Cc1cc(F)ccc1-c1cc(Cn2ccnc2C)cc(C(=O)NCc2ccc(Cl)c(Cl)c2)n1 [Example 156, N-(3,4-dichlorobenzyl)-6-(4-fluoro-2-methylphenyl)-4-((2-methyl-1H-imidazol-1-yl)methyl)picolinamide] | 630 nM | – | – |
| Cc1ccnc(C(NC(=O)c2cc(Cn3ccnc3)cc(-c3ccc(F)nc3C)c2)C2CC2)c1 (stereo not drawn) [Example 137, 3-((1H-Imidazol-1-yl)methyl)-N-(cyclopropyl(4-methylpyridin-2-yl)methyl)-5-(6-fluoro-2-methylpyridin-3-yl)benzamide] | – | 2 nM | Ki (WDR5 [2]; [6]): < 1 nM |
| Cc1cc(CNC(=O)c2cc(CNC3=NCCC3)cc(-c3ccc(F)cc3C)c2)ccc1Cl [Example 64, N-(4-Chloro-3-methylbenzyl)-5-(((3,4-dihydro-2H-pyrrol-5-yl)amino)methyl)-4′-fluoro-2′-methyl-[1,1′-biphenyl]-3-carboxamide] | 280 nM | – | – |
| O=C(NCc1ccc(Cl)c(Cl)c1)c1cc(Cl)cc(CNC2=NCCN2)c1 [Example B8] | – | – | Ki (WDR5 [2]; [7]): 10.7 nM |
| COc1cc(CNC(=O)c2cc(CNC3=NCCC3)cc(-c3ccc(F)cc3C)n2)cc(OC)c1 [Example C24] | – | – | Ki (WDR5 [2]; [8]): 11.7 nM |
| O=C(NC(C1CC1)C1CC1)c1cc(CNC2=NCCN2)cc(-c2ccc(F)cc2Cl)c1 [Example 2, 2′-Chloro-N-(dicyclopropylmethyl)-5-(((4,5-dihydro-1H-imidazol-2-yl)amino)methyl)-4′-fluoro-[1,1′-biphenyl]-3-carboxamide] | – | – | Ki (WDR5 [2]; [6]): 6 nM |
| Cc1nc(F)ccc1-c1cc(Cn2ccnc2)cc(C(=O)NC(C)C2CCCCC2)c1 (stereo not drawn) [Example 132, 3-((1H-Imidazol-1-yl)methyl)-N-(1-cyclohexylethyl)-5-(6-fluoro-2-methylpyridin-3-yl)benzamide] | – | – | Ki (WDR5 [2]; [6]): 3.9 nM |
| Cc1cc(CNC(=O)c2cc(CNC3=NCCC3)cc(-c3ccc(F)cc3C)n2)ccc1Cl [Example C23] | – | – | Ki (WDR5 [2]; [8]): 3.13 nM |
| Cc1cc(C)cc(CNC(=O)c2ccc(F)c(CNC3=NCCN3)c2)c1 [Example B7] | – | – | Ki (WDR5 [2]; [7]): 8.46 nM |
| COc1cncc(-c2cc(Cn3ccnc3)cc(C(=O)NCc3ccc(Cl)c(Cl)c3)c2)c1 [Example 128, 3-((1H-Imidazol-1-yl)methyl)-N-(3,4-dichlorobenzyl)-5-(5-methoxypyridin-3-yl)benzamide] | – | – | Ki (WDR5 [2]; [6]): 2.2 nM |
